Reference: patent publication US8629272B2, “Tricyclic pyrimidine derivatives as wnt antagonists” (Deutsches Krebsforschungszentrum, priority 2009, dated 2014)

Tests used:
Type in all cases: cell-based
[1] = tested on: Hek293T; assay: Cytotoxicity in Hek293T, CellTiterGlo; details: 24 h
Experimental: (§1) For examination of cytotoxicity in these cancer cell lines the commercial available CellTiterGlo® Reagent (Promega, USA) was used according to the manufactor. Compounds were applied to Hek293T (denoted (1)) or HepG2 (denoted (2)), cultured in Dulbecco's Modified Eagles Medium, supplemented with 10% fetal calf serum and 1% penicillin/streptomycin. Cells were grown in T75 flasks at 37° C., 5% CO2 and trypsinized when 60-80% confluent by adding 2 ml of 0.25% Trypsin-EDTA solution. Cells were then re-suspended into culture medium yielding approx. 4000 cells (1) or 4500 cells (2), suspended in 30 microl medium. 48 h after cell seeding, compounds were added to yield the desired final concentrations. 24 h after compound addition cytotoxicity was evaluated. For this purpose the media was removed and CellTiterGlo® was added according to the manufactors manual. In this assay the luciferase emission readout is directly correlated with the cellular amount of ATP, low luciferase emission thus is reflecting cytotoxicity of a compound. For the evaluation of the IC50 the compound was applied in increasing concentrations yielding final concentrations per well of 5 nM-100 microM.

[2] = tested on: HepG2; assay: Cytotoxicity in HepG2, CellTiterGlo; details: 24 h
Experimental: as §1

[3] = tested on: human colon carcinoma cells HCT116; assay: Antiproliferative activity against HCT116, cell count
Experimental: For examination of cell line-specific cytotoxicity, compounds were applied to human colorectal cancer cells (HCT116, denoted (1); SW480, denoted (2); Dld-1, denoted (3)) and human fibroblasts (HFF-1, denoted (4); HS-68, denoted (5)), cultured in Mc Coy's (1) and Dulbecco's Modified Eagles Medium (2-5), supplemented with 10% ((1)-(3)) and 20% ((4), (5)) fetal calf serum and 1% penicillin/streptomycin. Cells were grown in T75 flasks at 37° C., 5% CO2 and trypsinized when 60-80% confluent by adding 2 ml of 0.25% Trypsin-EDTA solution. Cells were then re-suspended into culture medium and approx. 750 cells, suspended in 45 microl medium, were plated into each well of a black 384-well plate for fluorescence imaging experiments. 24-36 hr later 5 microl compound solution (100 microM compound dissolved in ultra pure water containing 1% DMSO), were added to achieve a final concentration of 10 microM and were incubated for at least 72 hr. Compound incubation was terminated by (a) fixation and (b) permeabilisation of cells, followed by (c) fluorescence labeling of cell nuclei for cytometric quantification or by immunocytochemistry for microscopic evaluation of cell morphology. The three steps were performed by replacing the solution of the previous step in each well of a 384-well plate by (a) 30 microl PBS (phosphate buffered saline) containing 5% PFA (paraformaldehyde), (b) 30 microl PBS containing 0.2% TritonX-100 and (c) 10 microl PBS containing Hoechst-33342 for cytometry or Hoechst-33342, FITC (fluorescein isothiocyanate-) labeled α-tubulin antibodies and TRITC-(tetramethylrhodamine isothiocyanate-) labeled phalloidin antibodies for microscopy. Solutions were incubated for 15 (a,b) and 30 min (c) in the dark at room temperature. Cells were washed twice between each step with 30 microl PBS. The assay system was miniaturized and adapted to automated workflow using liquid-handling robotics.
Cell line-specific cytotoxicity was quantified by counting the number of Hoechst labeled nuclei per well of a 384-well plate using a plate cytometer. Data obtained with the cytometer was analysed using standard data analysis software.
The examination of the antiproliferative activity against human colon carcinoma cells HCT116 was carried out in analogy to example 35. […] Compounds of the present invention have potent antiproliferative activity against human colon carcinoma cells as shown for HCT116 in Table 6.

[4] = tested on: Wnt signalling pathway; assay: Wnt-sensitive reporter gene assay (6xTCF-luciferase, pTOP-FLASH) in Hek293T cells; design: Normalized Wnt pathway (inhibitory) activity: scale not given here; details: for IC50: Homo sapiens, HEK-293T, Hek293T, 24 h incubation, 5 nM-100 microM, read-out: IC50 of the Wnt signalling pathway inhibiting activity
Experimental: To screen for small-molecule modulators of the Wnt signalling pathway, a reporter gene based assay describing the modulation of the TCF4 transcription factor was used. More specifically 4000 Hek293T cells were seeded into 384 high density plates. 24 h after seeding a Wnt-sensitive reporter (6×TCF-luciferase (Firefly) (pTOP-FLASH; “Armadillo co activates transcription driven by the product of the drosophila segment polarity gene dTCF”, Cell, 1997, 88(6), pages 789-799) and constitutively expressed control reporter (Renilla luciferase pCMV-RL) were transfected into Hek293T. Wnt signaling was stimulated by cotransfecting mouse Wnt1, mouse Frizzled 8 and human LRP6 according to “Casein kinase 1 gamma couples Wnt receptor activation to cytoplasmic signal transduction”, Nature, 2005, 438 (7069), pages 867-872. 24 h after pathway stimulation compounds were added at a concentration of 10 microM and allowed to incubate for 24 h. For the evaluation of the IC50 the compound was applied in increasing concentrations yielding final concentrations per well of 5 nM-100 microM.

CCOC(=O)C1=C(c2ccccc2)c2c(n(-c3ccccc3)c(=O)n3c(-c4cccc(OC)c4)nnc23)NC1C (stereo not drawn) [Example 16, 3-(3-Methoxy-phenyl)-7-methyl-4-oxo-5,9-diphenyl-4,5,6,7-tetrahydro-1,2,3a,5,6-pentaaza-cyclopenta[a]naphthalene-8-carboxylic acid ethyl ester]
Normalized toxicity values (Hek293T) ([1]; 0.005 microM): 1.0215
Normalized toxicity values (Hek293T) ([1]; 0.015 microM): 0.8660
Normalized toxicity values (Hek293T) ([1]; 0.046 microM): 0.8370
Normalized toxicity values (Hek293T) ([1]; 0.137 microM): 0.8375
Normalized toxicity values (Hek293T) ([1]; 0.412 microM): 0.8593
Normalized toxicity values (Hek293T) ([1]; 1.235 microM): 0.8530
Normalized toxicity values (Hek293T) ([1]; 3.704 microM): 0.8778
Normalized toxicity values (Hek293T) ([1]; 11.111 microM): 0.9213
Normalized toxicity values (Hek293T) ([1]; 33.333 microM): 0.9450
Normalized toxicity values (Hek293T) ([1]; 100.000 microM): 0.9233
Normalized toxicity values (HepG2) ([2]; 0.005 microM): 1.0275
Normalized toxicity values (HepG2) ([2]; 0.015 microM): 0.9130
Normalized toxicity values (HepG2) ([2]; 0.046 microM): 0.9210
Normalized toxicity values (HepG2) ([2]; 0.137 microM): 0.9210
Normalized toxicity values (HepG2) ([2]; 0.412 microM): 0.9183
Normalized toxicity values (HepG2) ([2]; 1.235 microM): 0.9173
Normalized toxicity values (HepG2) ([2]; 3.704 microM): 1.0303
Normalized toxicity values (HepG2) ([2]; 11.111 microM): 1.1325
Normalized toxicity values (HepG2) ([2]; 33.333 microM): 1.2425
Normalized toxicity values (HepG2) ([2]; 100.000 microM): 1.1200
Normalized cell count (HCT 116) ([3]; 0.005 microM): 1
Normalized cell count (HCT 116) ([3]; 0.015 microM): 1.063
Normalized cell count (HCT 116) ([3]; 0.046 microM): 1.163
Normalized cell count (HCT 116) ([3]; 0.137 microM): 1.06
Normalized cell count (HCT 116) ([3]; 0.412 microM): 1.067
Normalized cell count (HCT 116) ([3]; 1.235 microM): 1.125
Normalized cell count (HCT 116) ([3]; 3.704 microM): 1.2
Normalized cell count (HCT 116) ([3]; 11.111 microM): 1.231
Normalized cell count (HCT 116) ([3]; 33.333 microM): 0.52
Normalized cell count (HCT 116) ([3]; 100.000 microM): 0.5801
Normalized Wnt pathway (inhibitory) activity ([4]; 0.005 microM): 0.9907
Normalized Wnt pathway (inhibitory) activity ([4]; 0.015 microM): 1.2275
Normalized Wnt pathway (inhibitory) activity ([4]; 0.046 microM): 1.0533
Normalized Wnt pathway (inhibitory) activity ([4]; 0.137 microM): 1.0070
Normalized Wnt pathway (inhibitory) activity ([4]; 0.412 microM): 1.0435
Normalized Wnt pathway (inhibitory) activity ([4]; 1.235 microM): 0.9565
Normalized Wnt pathway (inhibitory) activity ([4]; 3.704 microM): 0.5445
Normalized Wnt pathway (inhibitory) activity ([4]; 11.111 microM): 0.3755
Normalized Wnt pathway (inhibitory) activity ([4]; 33.333 microM): 0.3063
Normalized Wnt pathway (inhibitory) activity ([4]; 100.000 microM): 0.1990
IC50 [4]: 2.94 µM

CCOC(=O)C1=C(C)Nc2c(c3nnc(-c4cccc(OC)c4)n3c(=O)n2-c2ccccc2)C1c1ccccc1 (stereo not drawn) [Example 15, 3-(3-Methoxy-phenyl)-7-methyl-4-oxo-5,9-diphenyl-4,5,6,9-tetrahydro-1,2,3a,5,6-pentaaza-cyclopenta[a]naphthalene-8-carboxylic acid ethyl ester]
Normalized toxicity values (Hek293T) ([1]; 0.005 microM): 1.1205
Normalized toxicity values (Hek293T) ([1]; 0.015 microM): 1.0500
Normalized toxicity values (Hek293T) ([1]; 0.046 microM): 1.2200
Normalized toxicity values (Hek293T) ([1]; 0.137 microM): 0.9283
Normalized toxicity values (Hek293T) ([1]; 0.412 microM): 0.9603
Normalized toxicity values (Hek293T) ([1]; 1.235 microM): 0.8915
Normalized toxicity values (Hek293T) ([1]; 3.704 microM): 1.0113
Normalized toxicity values (Hek293T) ([1]; 11.111 microM): 1.1550
Normalized toxicity values (Hek293T) ([1]; 33.333 microM): 1.0515
Normalized toxicity values (Hek293T) ([1]; 100.000 microM): 1.4175
Normalized toxicity values (HepG2) ([2]; 0.005 microM): 1.0700
Normalized toxicity values (HepG2) ([2]; 0.015 microM): 1.0465
Normalized toxicity values (HepG2) ([2]; 0.046 microM): 1.1350
Normalized toxicity values (HepG2) ([2]; 0.137 microM): 0.9913
Normalized toxicity values (HepG2) ([2]; 0.412 microM): 1.0390
Normalized toxicity values (HepG2) ([2]; 1.235 microM): 0.9878
Normalized toxicity values (HepG2) ([2]; 3.704 microM): 1.1575
Normalized toxicity values (HepG2) ([2]; 11.111 microM): 1.1825
Normalized toxicity values (HepG2) ([2]; 33.333 microM): 1.2000
Normalized toxicity values (HepG2) ([2]; 100.000 microM): 1.5075
Normalized cell count (HCT 116) ([3]; 0.005 microM): 1
Normalized cell count (HCT 116) ([3]; 0.015 microM): 1.039
Normalized cell count (HCT 116) ([3]; 0.046 microM): 1.013
Normalized cell count (HCT 116) ([3]; 0.137 microM): 0.9313
Normalized cell count (HCT 116) ([3]; 0.412 microM): 0.9219
Normalized cell count (HCT 116) ([3]; 1.235 microM): 0.865
Normalized cell count (HCT 116) ([3]; 3.704 microM): 0.7235
Normalized cell count (HCT 116) ([3]; 11.111 microM): 0.2716
Normalized cell count (HCT 116) ([3]; 33.333 microM): 0.257
Normalized cell count (HCT 116) ([3]; 100.000 microM): 0.1496
Normalized Wnt pathway (inhibitory) activity ([4]; 0.005 microM): 0.9417
Normalized Wnt pathway (inhibitory) activity ([4]; 0.015 microM): 0.9230
Normalized Wnt pathway (inhibitory) activity ([4]; 0.137 microM): 1.0963
Normalized Wnt pathway (inhibitory) activity ([4]; 0.412 microM): 0.9830
Normalized Wnt pathway (inhibitory) activity ([4]; 1.235 microM): 0.8830
Normalized Wnt pathway (inhibitory) activity ([4]; 3.704 microM): 0.2973
Normalized Wnt pathway (inhibitory) activity ([4]; 11.111 microM): 0.2350
Normalized Wnt pathway (inhibitory) activity ([4]; 33.333 microM): 0.4200
Normalized Wnt pathway (inhibitory) activity ([4]; 100.000 microM): 0.4505
IC50 [4]: 1.34 µM
